These results are taken from patent US4079140A, “Benzothienyl aminoethyl ketones and their application in therapeutics” (Innothera, priority 1975, dated 1978).

Converted amounts (≈) assume the structure as drawn. “And” between values parts separate entries of the source, which are not always exact repeats. Identical values can stand only once. Counter-ions that a name gives are not always drawn. Like-named read-outs stand apart in the source and are kept apart here.

Series [1] concerns isolated heart of a guinea-pig. The series can be described thus: Vasodilatatory activity, coronary flow of isolated perfused heart. Conditions: for activation at 10 µg/mL: Cavia porcellus, compound 1 × 10^-5 g/ml, Locke solution, 37° C, at climax of activity, read-out: P (X): percentage of coronary flow increase; for ratio P (X)/P (R): X and Dipyridamole both 1 × 10^-5 g/ml, head is drawing 21. Here is the method:
The percentage of flow increase (P) is calculated at the climax of the activity of X or R.

A further series deals with human blood-plaques. In words: Blood-plaque aggregation inhibition in B.P.R.P. (D.P.A., adrenaline, collagene). Conditions: for a(X): blood-plaque aggregation inhibiting activity, D.P.A. / a(X): blood-plaque aggregation inhibiting activity, Adrenaline: compound 2.5 × 10^-5 g/ml; for ratio of activities a(X)/a(R), D.P.A. / ratio of activities a(X)/a(R), Adrenaline: X 2.5 × 10^-5 g/ml vs Dipyridamole 5 × 10^-4 g/ml; for ratio of activities a(X)/a(R), D.P.A.: head is drawing 13; for ratio of activities a(X)/a(R), Adrenaline: head is drawing 15; for a(X): blood-plaque aggregation inhibiting activity, Collagene: compound 2 × 10^-5 g/ml; for ratio of activities a(X)/a(R), Collagene: X 2 × 10^-5 g/ml vs Dipyridamole 2 × 10^-4 g/ml, head is drawing 16.

Series [2] in a line: Acute oral toxicity (LD 50), Miller and Tainter. The conditions noted are these: mouse, in vivo; for LD50 at 168 h: mice deprived of food 18 hours, oral (esophageal probe), mortality followed seven days, read-out: LD 50 (50% lethal dose). Here is the method: Acute toxicity of compounds of formula (I) was measured orally (esophageal probe) on mice deprived of food 18 hours before the beginning of the test. The products were suspended in a solution of dilute carboxymethyl cellulose. Calculation of the 50% lethal dose was carried out according to the method of Miller and Tainter (Miller L. C., Tainter M. L., proc. Soc. Exptl. Biol. Med. 1944, 57, 261-264).
The mortality rate was checked for seven days following the treatment.

The subject of series [3] is phenylparaquinone (P.P.Q.) painful syndrome in mouse. In words: Analgesic and anti-inflammatory activity (P.P.Q. painful syndrome). It is filed as in vivo. Conditions: for a (X): percentage activity, P.P.Q.: 50 mg/kg digestively; for ratio of activity of X in relation to R, P.P.Q.: X 50 mg/kg vs Glafenine 25 mg/kg, 0.5 = half the activity of reference, head is drawing 19. Here is the method:
The intraperitoneal injection of phenylparaquinone (P.P.Q.) to a mouse causes the appearance of a painful syndrome appearing within 5 minutes of the injection and disappearing after about 30 minutes (Siegmund E. A., Cadmus A., Lu G., J. Pharmacol. Exp. Therap. 1957, 119, 453).
This painful syndrome manifests itself in the animal by a series of characteristic crises more or less close together and fleeting, during which can be noted a twisting or stretching of the body, a hollowing of the sides and a stretching of the hind legs.
It is then possible to note the number of crises in a given interval of time.
The preventive administration of analgesic or anti-inflammatory substances prevents the appearance of the crises and reduces the frequence thereof.
The reference substance used in the tests (R) is the ester of N-(7-chloro-4-quinolyl) anthrilic acid and 2,3-dihydroxy n. propanol (known under the trademark "Glafenine").
It is administered orally as a dose of 25 mg/kg.
The compounds of formula I (X) were administered digestively as a dose of 50 mg/kg.
The interval of time (t) chosen for calculating the analgesic activity was between 10 and 15 minutes after injection of P.P.Q. which is the period of maximum frequency of the crises. This activity was expressed in the following manner;
n: the number of crises observed in controle mice;
n': the number of crises observed in mice previously treated with the reference substance (R);
n": the number of crises observed in mice having received substance (X)
The percentage activity of R is equal to: [formula] The percentage activity of X is equal to: [formula] The activity of X in relation to R is estimated by the ratio: [formula]

The next series has as its system rat's isolated duodenum. The series can be described thus: Spasmolytic activity on isolated duodenum, barium chloride contraction (Magnus). The conditions noted are these: for relative activity, ratio of ED 50 (papaverine hydrochloride = R): 2 = twice the activity of papaverine hydrochloride, head is drawing 18; for IC50: Rattus norvegicus. Here is the method:
Spasmolytic activity was studied on a rat's isolated duodenum maintained in a survival medium of an aerated Tyrode solution heated to 38° C, according to the technique of Magnus (Magnus R. -- Archiv. ges. Physiol., 1905, 180, 1-71).
The contracting agent was barium chloride, the reference antagonist agent being papaverine hydrochloride (R). The average activity of compounds of formula I (X) compared to that of the reference agent were expressed by calculating the ratio of 50 efficient doses (ED 50) determined graphically on logarithmic paper: [formula]
For example: a substance having a relative activity expressed by the figure 2 has an activity equal to twice that of papaverine hydrochloride.

[4] abbreviates: crises 10 to 15 minutes after P.P.Q.
The mark [5] stands for this setting: barium chloride contraction, Tyrode solution, 38° C, read-out: ED 50 (X), spasmolytic activity.

As for `O=C(CCN1CCCCCC1)c1cc2ccccc2s1` [Compound 1, 1-(benzothien-2'yl) 3-N-perhydroazepino propanone oxalate], in series [1], the activation at 10 µg/mL was determined as 66% and the “ratio P (X)/P (R)” value was found to be 0.87. The “a(X): blood-plaque aggregation inhibiting activity, D.P.A.” value in the series with human blood-plaques (D.P.A.-induced) is 54%. Moreover, in the series on human blood-plaques, the “ratio of activities a(X)/a(R), D.P.A.” value is on record as 7.5 × 10^-1; the “ratio of activities a(X)/a(R), Adrenaline” value (“ratio … Adrenaline” for short) is listed as 6 × 10^-2; the “ratio of activities a(X)/a(R), Collagene” value came to 2.5. For the same molecule, the “a(X): blood-plaque aggregation inhibiting activity, Adrenaline” value in the series with human blood-plaques (adrenaline-induced) worked out at 6%. Besides, the “a(X): blood-plaque aggregation inhibiting activity, Collagene” value with human blood-plaques (collagene-induced) is on record as 91%. In addition, the LD50 at 168 h in series [2] is 1200 mg/kg.
As for `O=C(CCN1CCOCC1)c1cc2ccccc2s1` [Compound 5], the “a(X): blood-plaque aggregation inhibiting activity, Adrenaline” value with human blood-plaques (adrenaline-induced) came to 44%. Besides, in the series on human blood-plaques, the “ratio … Adrenaline” value is recorded as 4.6 × 10^-1 and the “ratio of activities a(X)/a(R), Collagene” value is on record as 1.25. In addition, in the series on human blood-plaques (collagene-induced), the “a(X): blood-plaque aggregation inhibiting activity, Collagene” value stood at 45%. For the same molecule, the LD50 at 168 h in series [2] was above 1100 mg/kg. In addition, the “a (X): percentage activity, P.P.Q.” value in series [3] (setting [4]) came to 54%. In series [3], the “ratio of activity of X in relation to R, P.P.Q.” value (“ratio of activity of X … P.P.Q.” for short) is on record as 0.76.
For the molecule `CN(C)CCC(=O)c1cc2ccccc2s1` [Compound 2], in series [1], the activation at 10 µg/mL was found to be 64% and the “ratio P (X)/P (R)” value was determined as 0.4. Further, in the series on human blood-plaques, the “ratio of activities a(X)/a(R), D.P.A.” value turned out to be 1.4; the “ratio … Adrenaline” value is listed as 1; the “ratio of activities a(X)/a(R), Collagene” value stood at 1.75. Also, the “a(X): blood-plaque aggregation inhibiting activity, Adrenaline” value with human blood-plaques (adrenaline-induced) stood at 98%. In the series on human blood-plaques (collagene-induced), the “a(X): blood-plaque aggregation inhibiting activity, Collagene” value came to 74%. In addition, the LD50 at 168 h in series [2] was 960 mg/kg. In addition, in series [3] (setting [4]), the “a (X): percentage activity, P.P.Q.” value stood at 36%. In series [3], the “ratio of activity of X … P.P.Q.” value amounted to 0.51. In the series with rat's isolated duodenum, the “relative activity, ratio of ED 50 (papaverine hydrochloride = R)” value was found to be 2.64. The IC50 with rat's isolated duodenum (setting [5]) was 1.6 µg/mL (≈ 6.86 µM).
`COc1ccc(Cc2nccc3cc(OC)c(OC)cc23)cc1OC` [papaverine hydrochloride, reference compound]: in the series on rat's isolated duodenum (read-out: ED 50 (R), spasmolytic activity of reference, barium chloride contraction, Tyrode solution, 38° C, tested beside the compound of the same line), the IC50 is 4.25 µg/mL.
In the case of `O=C(CCN1CCCCC1)c1cc2ccccc2s1` [Compound 4], the “a(X): blood-plaque aggregation inhibiting activity, D.P.A.” value with human blood-plaques (D.P.A.-induced) was determined as 63%. Further, in the series on human blood-plaques, the “ratio of activities a(X)/a(R), D.P.A.” value worked out at 1.2; the “ratio … Adrenaline” value is 1.1; the “ratio of activities a(X)/a(R), Collagene” value was found to be 2.2. Further, the “a(X): blood-plaque aggregation inhibiting activity, Adrenaline” value with human blood-plaques (adrenaline-induced) is 89%. Moreover, in the series with human blood-plaques (collagene-induced), the “a(X): blood-plaque aggregation inhibiting activity, Collagene” value was 91%. For the same molecule, the LD50 at 168 h in series [2] is above 1100 mg/kg. The “a (X): percentage activity, P.P.Q.” value in series [3] (setting [4]) stood at 25%. In addition, in series [3], the “ratio of activity of X … P.P.Q.” value came out at 0.33. The “relative activity, ratio of ED 50 (papaverine hydrochloride = R)” value in the series on rat's isolated duodenum turned out to be 1.69. For the same molecule, in the series with rat's isolated duodenum (setting [5]), the IC50 was 3.1 µg/mL (≈ 11.3 µM).
Consider `OCCN(CCO)c1nc(N2CCCCC2)c2nc(N(CCO)CCO)nc(N3CCCCC3)c2n1` [Dipyridamole, reference compound], for which the “a(R): blood-plaque aggregation inhibiting activity of reference, D.P.A.” value in the series on human blood-plaques (D.P.A.-induced, reference 5 × 10^-4 g/ml, tested beside the compound of the same line) was 72% and 53%. Besides, in the series on human blood-plaques (adrenaline-induced, reference 5 × 10^-4 g/ml, tested beside the compound of the same line), the “a(R): blood-plaque aggregation inhibiting activity of reference, Adrenaline” value was 96% and 91% and 90% and 80%. For the same molecule, the “a(R): blood-plaque aggregation inhibiting activity of reference, Collagene” value with human blood-plaques (collagene-induced, reference 2 × 10^-4 g/ml, tested beside the compound of the same line) is 36% and 42% and 67%. In series [2] (po, reference product of the aggregation test, source of value not given), this molecule showed an LD50 of 2150 mg/kg.
Consider `C=CCN(CC=C)CCC(=O)c1cc2ccccc2s1` [Compound 3], for which, in the series on human blood-plaques (adrenaline-induced), the “a(X): blood-plaque aggregation inhibiting activity, Adrenaline” value is listed as 64%. In the series with human blood-plaques, the “ratio … Adrenaline” value is reported as 7 × 10^-1 and the “ratio of activities a(X)/a(R), Collagene” value is 2.5 × 10^-1. In addition, the “a(X): blood-plaque aggregation inhibiting activity, Collagene” value in the series with human blood-plaques (collagene-induced) is on record as 17%. In series [2], the LD50 at 168 h came to 1000 mg/kg. Also, the “a (X): percentage activity, P.P.Q.” value in series [3] (setting [4]) stood at 58%. The “ratio of activity of X … P.P.Q.” value in series [3] is given as 0.75.
Regarding `O=C(OCC(O)CO)c1ccccc1Nc1ccnc2cc(Cl)ccc12` (stereo not shown) [Glafenine, ester of N-(7-chloro-4-quinolyl) anthrilic acid and 2,3-dihydroxy n. propanol, reference compound], in series [3] (25 mg/kg orally, crises 10 to 15 minutes after P.P.Q., tested beside the compound of the same line), the “a (R): percentage activity of reference, P.P.Q.” value is 71% and 77% and 75%.
